Assay results as given in PubChem BioAssay AID1963970 (Molecular Pharmacology Branch, DTP, NCI, 2024).

System: 931267-113-T-J1-PDC multicell spheroid viability
Test: Anticancer human tumor 931267-113-T-J1-PDC patient-derived colon adenocarcinoma cell line growth inhibition [PI3K]
Details: for IC50: curve of first compound; for viability, T/C: stronger effect = lower value
Text: Combinatorial screen of targeted agents with the PI3K inhibitors inavolisib, alpelisib, duvelisib, and copanlisib in multi-cell type tumor spheroids
A high-throughput screen of multi-cell type tumor spheroids was designed to identify active combinations of targeted small molecules and PI3K pathway inhibitors. Complex spheroids include a stromal component modeled by human endothelial cells (HUVEC) and fibroblasts modeled by human mesenchymal stem cells (MSCs). The concentration ranges selected for each drug and investigational agent were based upon clinically achievable concentrations if the clinical Cmax of the agent was known.
Compounds. The drugs and investigational agents: inavolisib (NSC800729), alpelisib (NSC765974), duvelisib (NSC772469), copanlisib (NSC816437), ipatasertib (NSC767898), afuresertib (NSC778305), talazoparib (NSC767125), sapanisertib (NSC764658), selumetinib (NSC741078), tovorafenib (DAY101, NSC766906), vemurafenib (NSC761431), ravoxertinib (NSC781343), sotorasib (NSC818433), MRTX1133 (NSC 836407), abemaciclib (NSC 768073), palbociclib (NSC758247), venetoclax (NSC 766270), SY5609 (NSC837396), enzalutamide (NSC755605), and darolutamide (NSC825331), were obtained from the National Cancer Institute (NCI) Developmental Therapeutics Program Chemical Repository. The FDA-approved anticancer drug set is available from the NCI Developmental Therapeutics Program. […] The stock solutions were prepared in dimethyl sulfoxide (DMSO, Sigma-Aldrich, St. Louis, MO, cat. D2650) at 800-fold the tested concentration and stored at -70 degrees C prior to their use. All drugs and investigational agents were tested over a range starting from a high concentration at or near the clinical Cmax and decreasing in half-log increments. If the clinical Cmax for an agent had not been determined, the highest concentration tested was 10 microM.
Cell Culture. All cells were maintained in an incubator at 37 degrees C and 5% CO2 with 95% humidity. The PDC lines were cultured according to standard operating procedures established by the NCI PDMR (https://pdmr.cancer.gov/sops/default.htm). All PDCs were thawed and cultured in Matrigel-coated flasks prepared with a working solution of 1X Ham's F-12 nutrient mix, without supplementation (Invitrogen, Waltham, MA, cat. 11765054), 100 U/mL penicillin-streptomycin (Invitrogen, cat. 15140122), and 2.5% Matrigel (Corning Inc., Corning, NY, cat. 354248) for the first three passages. The 354836-022-R-J1-PDC, 475296-252-R-J1-PDC, and 997726-040-R-J2-PDC lines were cultured in 6A media, which includes advanced DMEM/F-12 (Thermo Fisher Scientific, cat. 12634028), 10 mM HEPES (Thermo Fisher Scientific, cat. 15630080), 1X GlutaMAX supplement (Thermo Fisher Scientific, cat. 35050061), 0.1 mg/mL primocin (InvivoGen, San Diego, CA, cat. ant-pm-2), 10% defined fetal bovine serum, heat inactivated (HyClone Laboratories Inc., Logan, UT, cat. SH30070.03HI), 50% L-WRN conditioned media (ATCC, cat. CRL-3276), 1.25 mM N-Acetyl-L-cysteine (Sigma-Aldrich, cat. A9165), 10 mM nicotinamide (Sigma-Aldrich, cat. N0636), 1X B-27 supplement (Thermo Fisher Scientific, cat. 17504044), 1X N-2 supplement (Thermo Fisher Scientific, cat. 17502048), and 10 microM Y-27632 dihydrochloride (Tocris Bioscience, Bristol, United Kingdom, cat. 1254). The 624824-186-R-J2-PDC line was cultured in 6C/Colon 1B media, which includes all 6A media components plus 50 ng/mL human EGF recombinant protein (Thermo Fisher Scientific, cat. PHG0311). […]

[1] = second compound 0.00316 µM, first compound 0.0316 µM
[2] = second compound 0.00316 µM, first compound 0.1 µM
[3] = second compound 0.00316 µM, first compound 0.316 µM
[4] = second compound 0.00316 µM, first compound 1 µM
[5] = second compound 0.00316 µM, first compound 3.16 µM
[6] = second compound 0.00316 µM, first compound 10 µM
[7] = second compound 0.01 µM, first compound 0.0316 µM
[8] = second compound 0.01 µM, first compound 0.1 µM
[9] = second compound 0.01 µM, first compound 0.316 µM
[10] = second compound 0.01 µM, first compound 1 µM
[11] = second compound 0.01 µM, first compound 3.16 µM
[12] = second compound 0.01 µM, first compound 10 µM
[13] = second compound 0.0316 µM, first compound 0.0316 µM
[14] = second compound 0.0316 µM, first compound 0.1 µM
[15] = second compound 0.0316 µM, first compound 0.316 µM
[16] = second compound 0.0316 µM, first compound 1 µM
[17] = second compound 0.0316 µM, first compound 3.16 µM
[18] = second compound 0.0316 µM, first compound 10 µM
[19] = second compound 0.1 µM, first compound 0.0316 µM
[20] = second compound 0.1 µM, first compound 0.1 µM
[21] = second compound 0.1 µM, first compound 0.316 µM
[22] = second compound 0.1 µM, first compound 1 µM
[23] = second compound 0.1 µM, first compound 3.16 µM
[24] = second compound 0.1 µM, first compound 10 µM
[25] = second compound 0.316 µM, first compound 0.0316 µM
[26] = second compound 0.316 µM, first compound 0.1 µM
[27] = second compound 0.316 µM, first compound 0.316 µM
[28] = second compound 0.316 µM, first compound 1 µM
[29] = second compound 0.316 µM, first compound 3.16 µM
[30] = second compound 0.316 µM, first compound 10 µM
[31] = second compound 1 µM, first compound 0.0316 µM
[32] = second compound 1 µM, first compound 0.1 µM
[33] = second compound 1 µM, first compound 0.316 µM
[34] = second compound 1 µM, first compound 1 µM
[35] = second compound 1 µM, first compound 3.16 µM
[36] = second compound 1 µM, first compound 10 µM
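Further: viability read 7 days after compound addition.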

In the case of `CC1(C)CCC(Nc2ncc(C(F)(F)F)c(-c3c[nH]c4c(P(C)(C)=O)c(C#N)ccc34)n2)CN1` (centres undefined) + COc1c(OCCCN2CCOCC2)ccc2c3n(c(=NC(=O)c4cnc(N)nc4)nc12)CCN3, the IC50 (second compound 0.00316 µM) is reported as > 10 µM, the IC50 (second compound 0.01 µM) is reported as > 10 µM and the IC50 (second compound 0.0316 µM) is reported as > 10 µM. For the same molecule, the IC50 (second compound 0.1 µM) was 4.29 µM, the IC50 (second compound 0.316 µM) was < 0.0316 µM and the IC50 (second compound 1 µM) was < 0.0316 µM. The viability, T/C [1] was 92.5%, the viability, T/C [2] was 94.2% and the viability, T/C [3] was 91.6%. For the same molecule, the viability, T/C [4] was 81.2%, the viability, T/C [5] was 76.5% and the viability, T/C [6] was 69.3%. The viability, T/C [7] was 97.3%, the viability, T/C [8] was 89.5% and the viability, T/C [9] was 81.5%. The viability, T/C [10] was 83.5%, the viability, T/C [11] was 77.3% and the viability, T/C [12] was 61.5%. For the same molecule, the viability, T/C [13] was 81.6%, the viability, T/C [14] was 78% and the viability, T/C [15] was 77.6%. It also gave a viability, T/C [16] of 67.1%, a viability, T/C [17] of 70.6% and a viability, T/C [18] of 55.2%. For the same molecule, the viability, T/C [19] was 64.5%, the viability, T/C [20] was 66.1% and the viability, T/C [21] was 60%. The viability, T/C [22] was 58.2%, the viability, T/C [23] was 55.5% and the viability, T/C [24] was 39.8%. For the same molecule, the viability, T/C [25] was 47.3%, the viability, T/C [26] was 44.8% and the viability, T/C [27] was 41.2%. It also gave a viability, T/C [28] of 41.5%, a viability, T/C [29] of 40.6% and a viability, T/C [30] of 33.5%. It also gave a viability, T/C [31] of 33.8%, a viability, T/C [32] of 30.1% and a viability, T/C [33] of 30.2%. For the same molecule, the viability, T/C [34] was 28.3%, the viability, T/C [35] was 30.5% and the viability, T/C [36] was 20.9%.
For `CCCS(=O)(=O)Nc1ccc(F)c(C(=O)c2c[nH]c3ncc(-c4ccc(Cl)cc4)cc23)c1F` + CC(Nc1ccc2c(c1)OCCn1cc(N3C(=O)OCC3C(F)F)nc1-2)C(N)=O, the IC50 (second compound 0.00316 µM) was 6.11 µM, the IC50 (second compound 0.01 µM) was 6.34 µM and the IC50 (second compound 0.0316 µM) was 6.06 µM. It also gave an IC50 (second compound 0.1 µM) of 5.73 µM, an IC50 (second compound 0.316 µM) of 4.89 µM and an IC50 (second compound 1 µM) of 4.58 µM. The viability, T/C [1] was 95.6%, the viability, T/C [2] was 105% and the viability, T/C [3] was 125%. It also gave a viability, T/C [4] of 117%, a viability, T/C [5] of 120% and a viability, T/C [6] of 2.95%. For the same molecule, the viability, T/C [7] was 113%, the viability, T/C [8] was 118% and the viability, T/C [9] was 121%. The viability, T/C [10] was 125%, the viability, T/C [11] was 132% and the viability, T/C [12] was 3.03%. For the same molecule, the viability, T/C [13] was 105%, the viability, T/C [14] was 103% and the viability, T/C [15] was 110%. The viability, T/C [16] was 119%, the viability, T/C [17] was 114% and the viability, T/C [18] was 3.59%. The viability, T/C [19] was 91.9%, the viability, T/C [20] was 81.2% and the viability, T/C [21] was 102%. It also gave a viability, T/C [22] of 107%, a viability, T/C [23] of 111% and a viability, T/C [24] of 4.35%. For the same molecule, the viability, T/C [25] was 82.3%, the viability, T/C [26] was 86.5% and the viability, T/C [27] was 87.9%. It also gave a viability, T/C [28] of 99.2%, a viability, T/C [29] of 78.9% and a viability, T/C [30] of 2.7%. It also gave a viability, T/C [31] of 75.5%, a viability, T/C [32] of 75.4% and a viability, T/C [33] of 76.3%. The viability, T/C [34] was 61.3%, the viability, T/C [35] was 74.7% and the viability, T/C [36] was 2.07%.
